Reference: US11040035B2, “3-oxo-2,6-diphenyl-2,3-dihydropyridazine-4-carboxamides” (BAYER PHARMA AKTIENGESELLSCHAFT, priority 2016, dated 2021)

How the values were obtained:
AHR [1] = molecular target: T1, AHR (Homo sapiens, UniProt P35869); test: In vitro assay 2: agonism in human cell line (transactivation assay); conditions: Assay 2: AHR-luc Hum Agonism IC50 [M], no kynurenic acid, 20 hours, firefly luciferase
T1 sequence (P35869 11-848): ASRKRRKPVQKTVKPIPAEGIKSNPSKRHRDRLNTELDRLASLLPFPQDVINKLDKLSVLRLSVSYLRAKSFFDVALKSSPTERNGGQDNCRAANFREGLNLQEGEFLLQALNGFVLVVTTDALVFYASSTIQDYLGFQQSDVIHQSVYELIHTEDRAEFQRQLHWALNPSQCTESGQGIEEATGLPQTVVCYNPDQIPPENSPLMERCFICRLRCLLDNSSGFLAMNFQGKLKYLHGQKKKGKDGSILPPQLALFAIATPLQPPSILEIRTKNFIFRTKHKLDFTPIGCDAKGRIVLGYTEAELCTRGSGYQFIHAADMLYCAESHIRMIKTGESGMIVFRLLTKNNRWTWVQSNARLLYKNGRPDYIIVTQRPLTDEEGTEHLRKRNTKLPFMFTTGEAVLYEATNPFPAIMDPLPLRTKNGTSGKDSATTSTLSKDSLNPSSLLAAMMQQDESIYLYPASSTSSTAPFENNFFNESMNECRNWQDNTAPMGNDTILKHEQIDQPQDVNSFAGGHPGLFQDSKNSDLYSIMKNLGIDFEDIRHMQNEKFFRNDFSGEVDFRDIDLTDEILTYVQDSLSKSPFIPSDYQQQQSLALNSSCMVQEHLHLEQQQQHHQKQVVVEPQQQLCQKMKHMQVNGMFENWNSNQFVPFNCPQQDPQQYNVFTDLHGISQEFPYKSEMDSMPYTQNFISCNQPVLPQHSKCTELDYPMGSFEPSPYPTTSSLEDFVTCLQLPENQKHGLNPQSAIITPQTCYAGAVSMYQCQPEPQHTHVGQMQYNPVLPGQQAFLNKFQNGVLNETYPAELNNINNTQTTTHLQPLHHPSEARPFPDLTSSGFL

AHR [2] = molecular target: T1, AHR; test: In vitro assay 1: antagonism in human cell line (transactivation assay, kynurenic acid prestimulated); conditions: Assay 1: AHR-luc Hum Antagonism IC50 [M], 150 μM kynurenic acid, 20 hours, firefly luciferase

SMILES	IC50 (AHR [1]) [M]	IC50 (AHR [2]) [M]
O=C(NCC(O)C1CCCC1)c1cc(-c2ccc(Cl)cc2)nn(-c2cccc(F)c2)c1=O (racemic) [Example 232, 6-(4-Chlorophenyl)-N-[(2RS)-2-cyclopentyl-2-hydroxyethyl]-2-(3-fluorophenyl)-3-oxo-2,3-dihydropyridazine-4-carboxamide]	> 2e-05	1.19e-07
CCC(CC)C(O)CNC(=O)c1cc(-c2ccc(Cl)cc2)nn(-c2cccc(F)c2)c1=O (racemic) [Example 233, 6-(4-Chlorophenyl)-N-[(2RS)-3-ethyl-2-hydroxypentyl]-2-(3-fluorophenyl)-3-oxo-2,3-dihydropyridazine-4-carboxamide]	> 2e-05	1.72e-07
CN(C)CC(O)CNC(=O)c1cc(-c2ccc(Cl)cc2)nn(-c2cccc(F)c2)c1=O (racemic) [Example 235, 6-(4-Chlorophenyl)-N-[(2RS)-3-(dimethylamino)-2-hydroxypropyl]-2-(3-fluorophenyl)-3-oxo-2,3-dihydropyridazine-4-carboxamide]	> 2e-05	3e-06
Cc1ccc(-c2cc(C(=O)NC(CO)C3CC3)c(=O)n(-c3cccc(F)c3)n2)cc1 (racemic) [Example 236, N-[(1RS)-1-Cyclopropyl-2-hydroxyethyl]-2-(3-fluorophenyl)-6-(4-methylphenyl)-3-oxo-2,3-dihydropyridazine-4-carboxamide]	> 2e-05	8.23e-08
CC(C)C(O)CNC(=O)c1cc(-c2ccc(C(F)(F)F)cc2)nn(-c2cccc(F)c2)c1=O (racemic) [Example 241, 2-(3-Fluorophenyl)-N-[(2RS)-2-hydroxy-3-methylbutyl]-3-oxo-6-[4-(trifluoromethyl)phenyl]-2,3-dihydropyridazine-4-carboxamide]	1.16e-07	> 2e-05
O=C(NCC(O)C(F)(F)F)c1cc(-c2ccc(C(F)(F)F)cc2)nn(-c2cccc(F)c2)c1=O (racemic) [Example 242, 2-(3-Fluorophenyl)-3-oxo-N-[(2RS)-3,3,3-trifluoro-2-hydroxypropyl]-6-[4-(trifluoromethyl)phenyl]-2,3-dihydropyridazine-4-carboxamide]	1.18e-05	> 2e-05
COCCC(CO)NC(=O)c1cc(-c2ccc(C(F)(F)F)cc2)nn(-c2cccc(F)c2)c1=O (racemic) [Example 259, 2-(3-Fluorophenyl)-N-[(2RS)-1-hydroxy-4-methoxybutan-2-yl]-3-oxo-6-[4-(trifluoromethyl)phenyl]-2,3-dihydropyridazine-4-carboxamide]	> 2e-05	3.82e-08
O=C(NCC(O)C(F)F)c1cc(-c2ccc(C(F)(F)F)cc2)nn(-c2cccc(F)c2)c1=O (racemic) [Example 261, N-[(2RS)-3,3-Difluoro-2-hydroxypropyl]-2-(3-fluorophenyl)-3-oxo-6-[4-(trifluoromethyl)phenyl]-2,3-dihydropyridazine-4-carboxamide]	> 2e-05	2.26e-08
CC(C)(O)C(O)CNC(=O)c1cc(-c2ccc(Cl)cc2)nn(-c2cccc(F)c2)c1=O (racemic) [Example 322, 6-(4-chlorophenyl)-N-[(2RS)-2,3-dihydroxy-3-methylbutyl]-2-(3-fluorophenyl)-3-oxo-2,3-dihydropyridazine-4-carboxamide]	> 2e-05	1.14e-07
O=C(NC(CO)Cc1ccccn1)c1cc(-c2ccc(Cl)cc2)nn(-c2cccc(F)c2)c1=O (racemic) [Example 333, 6-(4-chlorophenyl)-2-(3-fluorophenyl)-N-[(2RS)-1-hydroxy-3-(pyridin-2-yl)propan-2-yl]-3-oxo-2,3-dihydropyridazine-4-carboxamide]	> 2e-05	1.34e-07
O=C(NC(CO)Cc1ccncc1)c1cc(-c2ccc(Cl)cc2)nn(-c2cccc(F)c2)c1=O (racemic) [Example 334, 6-(4-chlorophenyl)-2-(3-fluorophenyl)-N-[(2RS)-1-hydroxy-3-(pyridin-4-yl)propan-2-yl]-3-oxo-2,3-dihydropyridazine-4-carboxamide]	> 2e-05	1.09e-07
